Broadly, the Ki is a dissociation constant, usually derived from enzyme kinetics or from competition with a known ligand.

Common to all, as to format: biochemical
Experiment [1] deals with T1, human Plasma Kallikrein (Homo sapiens, UniProt P03952).
T1 construct: Factor Xa, Thrombin, and Plasma Kallikrein Assays
Kind of experiment: Plasma Kallikrein assay (Ki, chromogenic substrate S-2302). As for the experimental part:
(§1) Factor Xa, Thrombin, and Plasma Kallikrein Assays
(§2) These procedures can be used to determine the constant of inhibition (Ki) for a sample compound of the invention.
(§3) 1. Add 50 μL sample to each well.
(§4) 2. Add 50 μL appropriately diluted coagulation factor to each well.
(§5) 3. Incubate for 5 minutes at room temperature with gentle agitation.
(§6) 4. Add 50 μL appropriately diluted substrate to each well.
(§7) 5. Agitate plate for 20-25 sec.
(§8) 6. Monitor absorbance at 405 nm every 10 sec for a total of 5 minutes at room temperature.
(§9) 7. Calculate Vmax over 10 points.
(§10) Assay—Enzyme, Substrate and Final Concentrations

For experiment [2], the target named is T2, Tissue Factor/factor VIIa (recombinant human factor VIIa, soluble Tissue Factor (1-219)) (Homo sapiens, UniProt P08709).
T2 construct: recombinant human factor VIIa (NB #25942-16); NB #25942-16
Kind of experiment: Tissue Factor/Factor VIIa antagonist assay (Ki, chromogenic substrate Chromozym-tPA). As to conditions: read-out: Ki(TFVIIa). As for the experimental part:
Tissue Factor/Factor VIIa Antagonist Assay
This procedure can be used to determine the constant of inhibition (Ki) for a sample compound of the invention.
1. Prepare a solution of 2 μg/mL (90 nM) tissue factor and 1.5 μg/mL (30 nM) factor VIIa in assay buffer with CaCl2.
2. Incubate for 15 minutes at room temperature.
3. Add 50 μL sample to each well.
4. Add 50 μL tissue factor/factor VIIa solution to each well.
5. Incubate for 15 minutes at room temperature with gentle agitation.
6. Add 50 μL substrate to each well.
7. Agitate plate for 20-25 sec.
8. Monitor absorbance at 405 nm every 10 sec for a total of 5 minutes at room temperature.
9. Calculate Vmax over 10 points.
as §10

Experiment [3] deals with T3, human Factor Xa (Homo sapiens, UniProt P00742).
T3 construct: This complex converts factor X to Xa
Kind of experiment: Factor Xa assay (Ki, chromogenic substrate S-2222). The protocol:
as §1, §2, §3, §4, §5, §6, §7, §8, §9, §10

Experiment [4] has as its target T4, human Thrombin (Homo sapiens, UniProt P00734).
T4 construct: rapidly converts prothrombin to thrombin
The experiment in a line: Thrombin assay (Ki, chromogenic substrate S-2366). The note with it: read-out: Ki(IIa). The protocol:
as §1, §2, §3, §4, §5, §6, §7, §8, §9, §10

T1 sequence (P03952 391-638 limits assumed): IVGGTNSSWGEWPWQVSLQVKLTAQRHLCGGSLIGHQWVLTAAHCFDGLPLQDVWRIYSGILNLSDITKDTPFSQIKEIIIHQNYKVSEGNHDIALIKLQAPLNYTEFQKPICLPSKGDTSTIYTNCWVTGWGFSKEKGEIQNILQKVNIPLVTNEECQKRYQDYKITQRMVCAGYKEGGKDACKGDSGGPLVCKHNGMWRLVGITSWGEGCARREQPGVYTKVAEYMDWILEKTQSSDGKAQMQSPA
T1 sequence (P03952 20-390 limits assumed): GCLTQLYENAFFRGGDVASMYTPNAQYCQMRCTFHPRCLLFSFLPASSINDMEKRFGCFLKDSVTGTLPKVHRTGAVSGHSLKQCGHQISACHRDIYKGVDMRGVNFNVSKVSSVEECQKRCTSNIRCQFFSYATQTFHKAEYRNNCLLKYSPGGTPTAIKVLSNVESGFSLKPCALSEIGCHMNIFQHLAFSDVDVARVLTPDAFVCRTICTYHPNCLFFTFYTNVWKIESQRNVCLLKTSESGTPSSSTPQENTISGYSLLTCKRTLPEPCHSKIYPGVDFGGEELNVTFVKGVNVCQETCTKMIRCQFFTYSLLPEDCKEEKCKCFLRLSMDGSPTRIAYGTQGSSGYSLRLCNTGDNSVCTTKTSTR
T3 sequence (P00742 235-488 limits assumed): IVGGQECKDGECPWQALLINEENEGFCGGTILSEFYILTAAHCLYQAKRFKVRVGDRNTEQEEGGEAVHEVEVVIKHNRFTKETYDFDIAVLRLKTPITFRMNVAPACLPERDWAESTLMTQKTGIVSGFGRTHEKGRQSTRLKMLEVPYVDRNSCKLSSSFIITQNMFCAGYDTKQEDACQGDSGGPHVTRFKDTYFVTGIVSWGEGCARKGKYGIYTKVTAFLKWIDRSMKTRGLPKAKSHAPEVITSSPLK
T3 sequence (P00742 41-179 limits assumed): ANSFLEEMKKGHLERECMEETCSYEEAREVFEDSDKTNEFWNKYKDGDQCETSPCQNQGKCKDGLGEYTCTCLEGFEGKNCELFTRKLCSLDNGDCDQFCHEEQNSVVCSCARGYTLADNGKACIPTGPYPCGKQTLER
T2 sequence (P08709 213-466 limits assumed): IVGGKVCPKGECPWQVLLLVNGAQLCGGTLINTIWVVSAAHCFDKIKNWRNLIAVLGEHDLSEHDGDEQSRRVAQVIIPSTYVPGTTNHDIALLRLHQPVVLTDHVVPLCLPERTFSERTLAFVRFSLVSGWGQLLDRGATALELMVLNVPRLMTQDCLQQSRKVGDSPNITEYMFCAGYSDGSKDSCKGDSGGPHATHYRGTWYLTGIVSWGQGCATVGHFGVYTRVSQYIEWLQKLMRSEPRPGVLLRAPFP
T2 sequence (P08709 61-212 limits assumed): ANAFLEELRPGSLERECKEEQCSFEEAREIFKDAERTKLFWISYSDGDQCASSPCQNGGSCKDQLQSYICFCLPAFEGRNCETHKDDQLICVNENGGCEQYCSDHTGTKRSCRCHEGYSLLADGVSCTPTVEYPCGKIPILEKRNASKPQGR
T2 sequence (P13726 33-251 partner limits assumed): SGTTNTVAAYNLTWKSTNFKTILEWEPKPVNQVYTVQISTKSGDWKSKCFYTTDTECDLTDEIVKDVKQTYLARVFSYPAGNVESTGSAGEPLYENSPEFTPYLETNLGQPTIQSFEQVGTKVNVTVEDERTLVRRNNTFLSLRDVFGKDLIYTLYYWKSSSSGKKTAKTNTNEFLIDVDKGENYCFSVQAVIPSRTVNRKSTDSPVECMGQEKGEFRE

As to `CCOc1ccc(C(Nc2ccc(C(=N)N)cc2)C(=O)NS(=O)(=O)c2ccccc2)cc1OCC` (stereo not shown), the inhibition constant (Ki) was determined as 2 nM in experiment [1] and 5 nM in experiment [2].
In experiment [3], `CCCCS(=O)(=O)NC(=O)C(Nc1ccc(C(=N)N)cc1)c1ccc(OC(C)C)c(OCC)c1` (stereo not shown) [4-{2-butylsulfonylamino-1-[4-isopropoxy,5-ethoxy)-phenyl]-2-oxo-ethylamino}benzamidine] showed a Ki of 624 nM.
Regarding `CCOc1cc(OCC)cc(C(Nc2ccc(C(=N)N)cc2)C(=O)NS(=O)(=O)c2ccccc2)c1` (stereo not shown), the inhibition constant Ki in experiment [2] was determined as 7 nM.
In the case of `CCOc1cc(C(Nc2ccc(C(=N)N)cc2)C(=O)NS(=O)(=O)CC)ccc1OC(C)C` (stereo not shown) [4-{2-ethylsulfonylamino-1-[4-isopropoxy,5-ethoxy)-phenyl]-2-oxo-ethylamino}benzamidine], the Ki in experiment [3] is 565 nM; in experiment [1] it was 11 nM.
The molecule `CCCS(=O)(=O)NCC(Nc1ccc(C(=N)N)cc1)c1cc(OCC)c(OCC(C)C)cc1NS(=O)(=O)CCC` (stereo not shown) displayed a Ki in experiment [1] of 1 nM.
Still for that read-out and setting: the same measure for `CCCS(=O)(=O)NCC(Nc1ccc(C(=N)N)cc1)c1cc(OCC)c(OC(C)C)cc1NS(C)(=O)=O` (stereo not shown): 1 nM.
Consider `COc1cc(C(CNS(=O)(=O)c2cccs2)Nc2ccc(C(=N)N)cc2)ccc1OCc1ccccc1` (stereo not shown) [4-[1-(4-Benzyloxy-3-methoxy-phenyl)-2-(thiophene-2-sulfonylamino)-ethylamino]-benzamidine], for which, in experiment [4], the Ki was determined as 16 nM.
As for `CCCS(=O)(=O)NCC(Nc1ccc(C(=N)N)cc1)c1cc(OCC)c(OCc2ccccc2)cc1NS(C)(=O)=O` (stereo not shown) [4-[1-(4-Benzyloxy-5-ethoxy-2-methanesulfonylamino-phenyl)-2-(propane-1-sulfonylamino)-ethylamino]benzamidine], in experiment [2], the Ki turned out to be 4 nM.
Consider `COc1cc(C(CNS(=O)(=O)c2ccccc2)Nc2ccc(C(=N)N)cc2)ccc1OC(CCl)c1ccccc1` (stereo not shown) [4-{2-benzenesulfonylamino-1-[4-(2-chloro-1-phenyl-ethoxy)-3-methoxy-phenyl]-ethylamino}-benzamidine], for which the Ki in experiment [4] is 1 nM.
As to `CCCS(=O)(=O)NCC(Nc1ccc(C(=N)N)cc1)c1ccc(OC(CCl)c2ccccc2)c(OC)c1` (stereo not shown) [4-{2-propanesulfonylamino-1-[4-(2-chloro-1-phenyl-ethoxy)-3-methoxy-phenyl]-ethylamino}-benzamidine], the figures for the Ki in experiment [3] and in experiment [4] were 140 nM and 1 nM, respectively.
In the case of `CCOc1cc(C(Nc2ccc(C(=N)N)cc2)C(=O)NS(=O)(=O)c2ccccc2)ccc1OC(C)C` (stereo not shown) [4-{2-benzenesulfonylamino-1-[4-isopropoxy,5-ethoxy)-phenyl]-2-oxo-ethylamino}benzamidine], the Ki is 898 nM in experiment [3], 113 nM in experiment [4] and 3 nM in experiment [2].

For the origin of these results see patent publication US6472393B1, “Serine protease inhibitors” (Genentech, Inc., priority 1999, dated 2002).
